Source: patent publication EP0977036A1, “METHOD FOR ASSAYING AGALACTO-IgG AND ASSAY KITS, PO[…] LECTINS, AND DNAS ENCODING THE SAME” (SEIKAGAKU CORPORATION, priority 1996, dated 1998)

Test system: PVL
Experiment: Influence of various monosaccharides on the agalacto-IgG assay system (PVL immobilized on plate, peroxidase-labeled anti-human IgG antibody)
Assay type: binding, Psathyrella velutina
Conditions: 50 mM monosaccharide added to agalacto-IgG standard solution (2.5 µg/ml); value without monosaccharide defined as 100%
Procedure: PVL purified in Example 1 or commercially available PVL was diluted to 20 µg/ml in 0.1 M carbonate buffer containing 10% glycerol (pH 8.5 to 9), and 50 µl of this solution (1 µg/well) was added to each well of a Nunc immunoplate (trade name; Maxisorp, Nunc), and left at 4°C for 16 hours to uniformly coat each well.
This plate was washed twice with PBS(-), and PBS(-) solution containing 3% bovine serum albumin (BSA, sold by Seikagaku Corporation) was added as a blocking agent, and left stand at room temperature for two hours to coat the portions of the wells on which PVL was not immobilized.
Then, the plate was washed three times with a washing solution (PBS(-) containing 0.05% Tween 20), and 50 µl each of standard solutions at various concentrations (0.125 to 2 µg/ml) of the agalacto-IgG purified in Preparation Example 1 was added, and left stand at 37°C for 60 minutes for reaction. As the solvent of the agalacto-IgG standard solutions, PBS(-) containing 1% BSA and 0.05% Tween 20 (referred to as "reaction diluent" hereinafter) was used. […]
After the color development, 50 µl of 1 N HCl was added to the plate to terminate the reaction, and absorbance at a wavelength of 450 nm of the solution colored by the decomposition of TMB was measured (reference wavelength: 630 nm, A450/630) by Well Reader SK601 (sold by Seikagaku Corporation). […]

CC(=O)N[C@H]1C(O)O[C@H](CO)[C@@H](O)[C@@H]1O (stereo partly shown) [GlcNAc, N-acetylglucosamine]
inhibition: about 50%
